According to ChEMBL document CHEMBL1201862, “PubChem BioAssay data set” (2004):
The source made the active and inactive calls.

Assays:
[1] = target: T1, Sphingosine 1-phosphate receptor 2 (Homo sapiens, UniProt O95136); test: Dose Response Cell Based Assay for Agonists of the S1P2 Receptor of Purchased Analogues. [Related pubchem assays: 729, 843, 854, 736 ]; format: functional
[2] = target: Photoreceptor-specific nuclear receptor (Homo sapiens, UniProt Q9Y5X4); test: ligands suppressing NR2E3 nuclear receptor activity – biochemical, TR-FRET, dose response (AID 463256); format: functional
[3] = target: Peroxisome proliferator-activated receptor gamma/Nuclear receptor corepressor 2 (Homo sapiens, UniProt P37231+Q9Y618); test: Counterscreen for NR2E3 inverse agonists: TR-FRET-based biochemical high throughput dose response assay to identify inverse agonists of the interaction between peroxisome proliferator-activated receptor gamma (PPARg) and nuclear receptor co-repressor 2 (NCOR2).; format: functional
[4] = HPDE-C7 pancreatic duct cell viability loss – fluorescence, HTS (AID 430); format: functional, cell-based; conditions: Homo sapiens
Fatty acid synthase [5] = target: T2, Fatty acid synthase (Homo sapiens, UniProt P49327); test: inhibition of human FAS-TE enzyme activity – biochemical, kinetic fluorescence intensity, dose response (AID 624326); format: functional;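 also: rate of fluorescence rise from hydrolysis of a fluorogenic O-methyl fluorescein ester substrate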
[6] = target: T3, Replicative DNA helicase DnaB (Mycobacterium tuberculosis, UniProt P9WMR3); test: DnaB intein splicing inhibitors, dose response, biochemical, cell-free fluorescence (AID 449749); format: functional
T3 sequence (P9WMR3 whole entry): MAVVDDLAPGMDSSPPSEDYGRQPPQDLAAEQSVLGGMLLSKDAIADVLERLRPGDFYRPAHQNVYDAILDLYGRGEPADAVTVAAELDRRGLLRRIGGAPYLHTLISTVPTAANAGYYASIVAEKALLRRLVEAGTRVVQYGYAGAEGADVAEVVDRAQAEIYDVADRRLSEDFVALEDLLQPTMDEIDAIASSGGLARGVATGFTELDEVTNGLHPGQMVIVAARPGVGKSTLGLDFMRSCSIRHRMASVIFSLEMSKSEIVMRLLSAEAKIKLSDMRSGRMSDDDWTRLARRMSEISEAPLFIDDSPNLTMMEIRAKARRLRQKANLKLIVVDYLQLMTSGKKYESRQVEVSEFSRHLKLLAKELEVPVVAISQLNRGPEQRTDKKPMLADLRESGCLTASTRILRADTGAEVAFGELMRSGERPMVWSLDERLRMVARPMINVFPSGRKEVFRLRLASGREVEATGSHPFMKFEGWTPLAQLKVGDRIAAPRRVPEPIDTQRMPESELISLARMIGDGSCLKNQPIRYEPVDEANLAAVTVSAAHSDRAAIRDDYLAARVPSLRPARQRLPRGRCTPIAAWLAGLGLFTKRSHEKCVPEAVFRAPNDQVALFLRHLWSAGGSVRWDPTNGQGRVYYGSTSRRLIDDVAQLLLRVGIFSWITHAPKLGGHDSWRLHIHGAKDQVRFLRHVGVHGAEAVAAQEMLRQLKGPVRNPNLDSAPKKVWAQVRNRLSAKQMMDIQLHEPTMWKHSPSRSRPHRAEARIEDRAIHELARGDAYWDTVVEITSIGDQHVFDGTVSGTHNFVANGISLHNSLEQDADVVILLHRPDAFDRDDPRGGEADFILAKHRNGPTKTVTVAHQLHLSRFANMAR

Fatty acid synthase [7] = target: T2, Fatty acid synthase; test: inhibition of human FAS-TE enzyme activity – biochemical, endpoint fluorescence intensity, uHTS hits, dose response (AID 624327); format: functional;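 also: fluorescence from hydrolysis of an O-methyl fluorescein acyl ester substrate by the enzyme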
[8] = target: Peroxisome proliferator-activated receptor gamma/Nuclear receptor coactivator 1 (Homo sapiens, UniProt P37231); test: (§1) TR-FRET dose response biochemical High Throughput Screening assay for agonists of the steroid receptor coactivator 1 (SRC-1) recruitment by the peroxisome proliferator-activated receptor gamma (PPAR gamma): non-selective agonists. [Related pubchem assays (depositor defined):AID1300, AID1808, AID504735, AID631]; format: protein assay
[9] = M. tuberculosis growth inhibition, HTS (AID 449762); format: functional
[10] = viability loss of HPDE-C7K cells – cell-based, fluorescence, HTS, primary screen (AID 431); format: functional; conditions: Homo sapiens
[11] = target: Peroxisome proliferator-activated receptor gamma/Nuclear receptor coactivator 3 (Homo sapiens, UniProt P37231); test: as §1, with “3 (SRC-3)” for “1 (SRC-1)”, “assays: 1301 (Confirmation screen.), 1048 (Primary screen.)]” for “assays (depositor defined):AID1300, AID1808, AID504735, AID631]”; format: functional
[12] = target: Peroxisome proliferator-activated receptor gamma/Nuclear receptor coactivator 2 (Homo sapiens, UniProt P37231); test: TR-FRET dose response biochemical High Throughput Screening assay for agonists of the steroid receptor coactivator 2 (SRC-2) recruitment by the peroxisome proliferator-activated receptor gamma (PPAR gamma): non-selective agonists. [Related pubchem assays: 1297, 1032 ]; format: functional
Protein RecA = target: T4, Protein RecA (Mycobacterium tuberculosis, UniProt P9WHJ3); test: Fluorescence Cell-Free Homogeneous Dose Retest to Identify Inhibitors of RecA-Intein Splicing Activity. [Related pubchem assays (depositor defined):AID2097, AID2223, AID489010, AID492950]; format: functional
T4 sequence (P9WHJ3 whole entry): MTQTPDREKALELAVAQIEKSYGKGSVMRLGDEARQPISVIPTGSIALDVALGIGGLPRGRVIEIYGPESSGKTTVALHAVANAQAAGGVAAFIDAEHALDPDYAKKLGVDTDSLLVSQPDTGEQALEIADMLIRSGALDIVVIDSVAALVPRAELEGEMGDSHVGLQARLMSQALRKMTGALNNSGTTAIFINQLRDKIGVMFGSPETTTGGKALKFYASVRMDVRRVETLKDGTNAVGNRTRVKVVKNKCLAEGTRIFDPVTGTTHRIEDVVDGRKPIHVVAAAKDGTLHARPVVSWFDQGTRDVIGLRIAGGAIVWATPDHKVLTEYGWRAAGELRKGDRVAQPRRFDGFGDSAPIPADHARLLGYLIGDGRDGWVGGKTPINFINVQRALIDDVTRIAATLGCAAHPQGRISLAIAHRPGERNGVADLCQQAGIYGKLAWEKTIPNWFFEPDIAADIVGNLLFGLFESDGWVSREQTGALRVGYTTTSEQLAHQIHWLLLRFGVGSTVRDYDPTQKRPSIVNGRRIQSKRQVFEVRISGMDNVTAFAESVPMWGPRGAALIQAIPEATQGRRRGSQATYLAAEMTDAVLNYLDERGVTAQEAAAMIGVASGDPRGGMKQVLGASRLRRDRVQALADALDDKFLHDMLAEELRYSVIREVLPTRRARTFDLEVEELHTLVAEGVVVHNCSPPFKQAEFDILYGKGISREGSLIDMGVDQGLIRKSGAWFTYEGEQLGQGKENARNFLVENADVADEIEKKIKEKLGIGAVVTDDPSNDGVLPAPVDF

[13] = microbe, parasite or virus in culture; format: functional; conditions: Mycobacterium tuberculosis
Bcl-2-related protein A1 [14] = target: T5, Bcl-2-related protein A1 (Mus musculus, UniProt Q07440); test: small-molecule antagonists of Bfl-1/BH3 interaction – biochemical, TR-FRET, mouse Bfl-1, confirmation (AID 621);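 also: TR-FRET binding of GST-Bfl-1 to FITC-labelled Bid peptide via terbium antibody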
T5 sequence (Q07440 whole entry): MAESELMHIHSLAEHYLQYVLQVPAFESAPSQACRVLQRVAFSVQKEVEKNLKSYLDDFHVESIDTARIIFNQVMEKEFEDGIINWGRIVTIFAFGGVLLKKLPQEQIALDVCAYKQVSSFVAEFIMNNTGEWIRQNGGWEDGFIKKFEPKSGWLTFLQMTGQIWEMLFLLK

[15] = A549 cell cytotoxicity, dose response, cytotoxicity control, plate reader, cherry-pick, antagonist series (AID 743412); format: functional, cell-based
[16] = toxicity toward HepG2 liver cells – cell-based, plate reader, cherry-pick, antagonist series, cytotoxicity control, dose response (AID 743416); format: functional
Bcl-2-related protein A1 [17] = target: T5, Bcl-2-related protein A1; test: Bfl-1 binding inhibitors, SAR follow-up, biochemical, fluorescence polarization (AID 1070)
[18] = blockers of bursicon-stimulated LGR2 cAMP reporter – cell-based, HEK293, CRE-luciferase reporter, cherry pick, set 2, dose response (AID 743343); format: functional;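 also: transfected cells were stimulated with diluted bursicon conditioned medium after compound addition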
[19] = blockade of melanocortin 4 receptor signaling – cell-based, plate reader, cherry pick, counter-screen for LGR2 antagonist project, dose response (AID 743444); format: functional;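 also: transfected HEK 293 cells stimulated with alpha-MSH peptide; potency of inhibitors of the alpha-MSH evoked signal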
[20] = target: Sphingosine 1-phosphate receptor 3 (Homo sapiens, UniProt Q99500); test: Dose Response Cell-Based Assay for Agonists of the Sphingosine 1-Phosphate Receptor 3 (S1P3): Purchased Analogues. [Related pubchem assays: 373, 439 ]; format: functional
[21] = target: T1, Sphingosine 1-phosphate receptor 2; test: Dose Response Cell-Based Assay for Agonists of the Sphingosine 1-Phosphate Receptor 2 (S1P2): Purchased Analogues. [Related pubchem assays: 1192, 373, 439 ]; format: functional
[22] = target: Sphingosine 1-phosphate receptor 1 (Homo sapiens, UniProt P21453); test: Dose Response Cell-Based Assay for Agonists of the Sphingosine 1-Phosphate Receptor 1 (S1P1): Purchased Analogues. [Related pubchem assays: 1192, 373, 439 ]; format: functional

T2 sequence (P49327 whole entry): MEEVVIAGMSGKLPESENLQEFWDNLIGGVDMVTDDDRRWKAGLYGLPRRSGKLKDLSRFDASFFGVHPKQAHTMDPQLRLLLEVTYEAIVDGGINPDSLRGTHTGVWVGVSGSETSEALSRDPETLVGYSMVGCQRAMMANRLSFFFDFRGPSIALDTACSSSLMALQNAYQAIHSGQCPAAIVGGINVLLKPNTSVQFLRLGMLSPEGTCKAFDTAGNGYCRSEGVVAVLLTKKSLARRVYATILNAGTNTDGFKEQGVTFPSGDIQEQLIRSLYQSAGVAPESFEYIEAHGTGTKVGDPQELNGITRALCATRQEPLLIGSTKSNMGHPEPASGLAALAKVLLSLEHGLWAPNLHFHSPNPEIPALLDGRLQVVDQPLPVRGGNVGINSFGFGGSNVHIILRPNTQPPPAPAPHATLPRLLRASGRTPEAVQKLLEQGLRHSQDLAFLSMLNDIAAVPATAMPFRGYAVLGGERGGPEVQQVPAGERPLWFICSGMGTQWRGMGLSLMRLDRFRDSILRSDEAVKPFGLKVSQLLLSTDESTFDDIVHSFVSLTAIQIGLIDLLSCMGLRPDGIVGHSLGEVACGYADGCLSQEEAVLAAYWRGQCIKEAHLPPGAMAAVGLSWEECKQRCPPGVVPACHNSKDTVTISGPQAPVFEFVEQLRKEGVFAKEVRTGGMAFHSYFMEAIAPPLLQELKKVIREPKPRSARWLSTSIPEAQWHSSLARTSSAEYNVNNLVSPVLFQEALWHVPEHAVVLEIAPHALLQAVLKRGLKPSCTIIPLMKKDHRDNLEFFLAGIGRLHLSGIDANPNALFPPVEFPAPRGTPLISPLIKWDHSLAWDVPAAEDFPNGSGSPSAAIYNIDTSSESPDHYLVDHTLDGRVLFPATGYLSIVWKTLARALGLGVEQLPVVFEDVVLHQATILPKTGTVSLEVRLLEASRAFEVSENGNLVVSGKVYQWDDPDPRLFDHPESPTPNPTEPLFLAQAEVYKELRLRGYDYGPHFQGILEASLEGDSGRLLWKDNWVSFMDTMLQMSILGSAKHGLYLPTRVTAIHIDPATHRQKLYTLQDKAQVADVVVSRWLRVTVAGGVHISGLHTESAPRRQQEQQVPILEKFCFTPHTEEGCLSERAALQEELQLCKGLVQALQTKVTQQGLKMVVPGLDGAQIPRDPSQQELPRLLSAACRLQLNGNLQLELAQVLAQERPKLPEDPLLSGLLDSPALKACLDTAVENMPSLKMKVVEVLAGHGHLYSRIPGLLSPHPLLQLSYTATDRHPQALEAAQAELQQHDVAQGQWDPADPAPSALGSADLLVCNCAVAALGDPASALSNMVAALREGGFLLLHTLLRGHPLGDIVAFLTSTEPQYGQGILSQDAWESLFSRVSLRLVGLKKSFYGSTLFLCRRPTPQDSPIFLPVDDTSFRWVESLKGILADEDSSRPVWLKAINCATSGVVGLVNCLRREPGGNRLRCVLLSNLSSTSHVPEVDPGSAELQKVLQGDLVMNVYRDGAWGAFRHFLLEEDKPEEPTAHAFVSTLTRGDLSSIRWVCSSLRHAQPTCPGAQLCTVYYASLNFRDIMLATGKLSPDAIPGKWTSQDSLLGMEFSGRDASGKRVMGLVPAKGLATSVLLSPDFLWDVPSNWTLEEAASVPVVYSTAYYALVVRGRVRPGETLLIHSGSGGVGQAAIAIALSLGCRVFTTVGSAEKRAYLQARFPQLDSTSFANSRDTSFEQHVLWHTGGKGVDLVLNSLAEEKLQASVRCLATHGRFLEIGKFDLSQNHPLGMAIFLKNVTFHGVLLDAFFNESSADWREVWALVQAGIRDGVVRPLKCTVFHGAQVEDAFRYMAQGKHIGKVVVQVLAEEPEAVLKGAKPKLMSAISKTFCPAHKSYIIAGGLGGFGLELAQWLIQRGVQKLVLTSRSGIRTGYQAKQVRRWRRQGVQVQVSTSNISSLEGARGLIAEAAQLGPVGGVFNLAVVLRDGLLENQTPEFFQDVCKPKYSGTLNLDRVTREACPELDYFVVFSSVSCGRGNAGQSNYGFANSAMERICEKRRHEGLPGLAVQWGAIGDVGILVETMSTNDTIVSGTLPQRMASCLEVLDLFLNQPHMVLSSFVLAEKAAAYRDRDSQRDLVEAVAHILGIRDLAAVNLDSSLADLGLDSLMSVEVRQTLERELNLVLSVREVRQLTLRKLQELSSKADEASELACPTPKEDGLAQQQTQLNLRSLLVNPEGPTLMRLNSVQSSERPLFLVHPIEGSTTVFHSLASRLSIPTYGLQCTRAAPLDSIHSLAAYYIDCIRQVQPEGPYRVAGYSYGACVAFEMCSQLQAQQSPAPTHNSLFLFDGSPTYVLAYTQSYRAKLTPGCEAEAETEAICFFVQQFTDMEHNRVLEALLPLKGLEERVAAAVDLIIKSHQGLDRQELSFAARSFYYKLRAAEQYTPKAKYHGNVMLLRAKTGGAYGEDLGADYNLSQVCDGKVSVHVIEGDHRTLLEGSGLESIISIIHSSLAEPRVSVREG
T1 sequence (O95136 whole entry): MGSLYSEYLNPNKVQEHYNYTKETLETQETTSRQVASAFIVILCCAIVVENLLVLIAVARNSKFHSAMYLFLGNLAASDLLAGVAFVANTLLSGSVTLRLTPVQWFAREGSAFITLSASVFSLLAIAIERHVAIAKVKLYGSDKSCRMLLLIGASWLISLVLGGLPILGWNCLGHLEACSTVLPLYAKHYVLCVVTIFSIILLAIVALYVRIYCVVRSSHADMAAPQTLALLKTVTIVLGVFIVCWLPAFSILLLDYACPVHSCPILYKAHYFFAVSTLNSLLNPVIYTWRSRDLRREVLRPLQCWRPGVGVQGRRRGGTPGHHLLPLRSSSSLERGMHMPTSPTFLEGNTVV
Peroxisome proliferator-activated receptor gamma/Nuclear receptor coactivator 2, sequence (P37231 whole entry): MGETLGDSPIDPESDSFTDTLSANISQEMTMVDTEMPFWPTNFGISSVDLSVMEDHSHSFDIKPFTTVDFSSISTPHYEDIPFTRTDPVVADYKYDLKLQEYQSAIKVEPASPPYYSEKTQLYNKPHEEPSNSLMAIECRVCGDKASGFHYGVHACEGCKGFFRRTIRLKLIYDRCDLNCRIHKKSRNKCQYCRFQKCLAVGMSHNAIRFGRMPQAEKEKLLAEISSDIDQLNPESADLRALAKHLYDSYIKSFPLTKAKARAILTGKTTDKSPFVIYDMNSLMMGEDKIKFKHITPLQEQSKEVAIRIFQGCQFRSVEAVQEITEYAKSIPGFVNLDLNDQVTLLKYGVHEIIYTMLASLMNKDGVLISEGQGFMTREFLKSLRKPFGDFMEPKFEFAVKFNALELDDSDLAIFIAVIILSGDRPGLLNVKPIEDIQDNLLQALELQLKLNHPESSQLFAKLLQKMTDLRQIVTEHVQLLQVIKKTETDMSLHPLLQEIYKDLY
Peroxisome proliferator-activated receptor gamma/Nuclear receptor coactivator 2, sequence (Q15596 whole entry, further chain): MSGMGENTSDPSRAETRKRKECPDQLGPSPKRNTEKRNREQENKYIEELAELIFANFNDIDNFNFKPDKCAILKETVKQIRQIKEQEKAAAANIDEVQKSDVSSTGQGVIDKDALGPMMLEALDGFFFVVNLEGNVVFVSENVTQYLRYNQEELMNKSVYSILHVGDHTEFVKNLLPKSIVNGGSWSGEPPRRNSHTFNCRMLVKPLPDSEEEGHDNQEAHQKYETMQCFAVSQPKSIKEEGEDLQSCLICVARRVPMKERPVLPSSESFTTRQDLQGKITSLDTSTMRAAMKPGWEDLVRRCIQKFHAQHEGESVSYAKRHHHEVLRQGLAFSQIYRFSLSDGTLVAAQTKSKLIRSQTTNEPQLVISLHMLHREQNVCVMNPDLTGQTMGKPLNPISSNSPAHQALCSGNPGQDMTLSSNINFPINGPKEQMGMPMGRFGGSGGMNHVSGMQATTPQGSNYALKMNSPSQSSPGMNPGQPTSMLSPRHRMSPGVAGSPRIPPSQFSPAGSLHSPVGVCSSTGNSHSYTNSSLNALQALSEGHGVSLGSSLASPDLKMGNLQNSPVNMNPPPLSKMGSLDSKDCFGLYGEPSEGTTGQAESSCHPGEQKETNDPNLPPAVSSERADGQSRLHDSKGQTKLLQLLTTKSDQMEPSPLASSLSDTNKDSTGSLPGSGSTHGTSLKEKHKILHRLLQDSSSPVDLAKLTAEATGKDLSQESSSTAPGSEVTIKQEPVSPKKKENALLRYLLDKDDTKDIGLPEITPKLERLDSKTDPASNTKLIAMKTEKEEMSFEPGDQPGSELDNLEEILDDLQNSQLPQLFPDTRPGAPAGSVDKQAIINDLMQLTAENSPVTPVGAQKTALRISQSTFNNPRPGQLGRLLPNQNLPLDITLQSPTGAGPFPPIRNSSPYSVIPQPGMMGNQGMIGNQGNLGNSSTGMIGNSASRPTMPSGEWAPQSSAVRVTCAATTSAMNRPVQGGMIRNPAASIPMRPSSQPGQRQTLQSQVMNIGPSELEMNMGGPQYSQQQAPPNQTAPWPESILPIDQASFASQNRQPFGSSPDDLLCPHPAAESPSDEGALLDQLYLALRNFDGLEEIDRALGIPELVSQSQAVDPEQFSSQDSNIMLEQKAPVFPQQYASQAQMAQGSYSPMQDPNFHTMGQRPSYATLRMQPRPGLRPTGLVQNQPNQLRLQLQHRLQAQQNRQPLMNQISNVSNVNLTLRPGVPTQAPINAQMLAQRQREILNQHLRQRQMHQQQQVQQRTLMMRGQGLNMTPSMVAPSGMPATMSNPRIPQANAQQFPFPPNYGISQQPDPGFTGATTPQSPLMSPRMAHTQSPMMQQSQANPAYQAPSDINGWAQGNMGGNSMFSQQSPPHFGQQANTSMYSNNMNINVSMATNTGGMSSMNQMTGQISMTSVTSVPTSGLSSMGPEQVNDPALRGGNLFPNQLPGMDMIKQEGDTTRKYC

Cc1cc(C(=O)CN(C)CC(=O)NC2CC2)c(C)n1Cc1ccccc1
EC50 [1]: > 30 µM (not active)

CC(C)(C)NC(=O)CN(Cc1ccco1)C(=O)CCC(=O)Nc1nccs1
IC50 [2]: > 39.8 µM (not active)
IC50 [3]: 32.7 µM (not active)

O=C(Sc1nnc(-c2ccccc2)o1)N1c2ccccc2Sc2ccccc21
EC50 [4]: 5.48 µM (active)
IC50 (Fatty acid synthase [5]): 16.3 µM (active)
AC50 [6]: 1.25 µM (active)
IC50 (Fatty acid synthase [7]): 10.4 µM (active)
EC50 [8]: 34.9 µM (inactive)
IC50 [9]: > 100 µM (active)
EC50 [10]: 6.64 µM (active)
EC50 [11]: > 79.4 µM (not active)
EC50 [12]: 20.8 µM (not active)
EC50 (Protein RecA): 0.804 µM (active)
CC50 [13]: > 40 µM (active)

Fc1ccc(-n2nnc(-c3cnc4ccccc4c3)n2)cc1
IC50 (Bcl-2-related protein A1 [14]): > 100 µM (not active)
AC50 [15]: 39.5 µM (active)
AC50 [16]: > 52 µM (inactive)
IC50 (Bcl-2-related protein A1 [17]): > 100 µM (not active)
AC50 [18]: 1.23 µM (active)
AC50 [19]: 2.15 µM (active)

COc1ccc(-c2n[nH]c(SCC(=O)N(C3CCCCC3)C3CCCCC3)n2)cc1
EC50 [20]: > 50 µM (not active)
EC50 [21]: > 10 µM (not active)
EC50 [22]: > 50 µM (not active)
